# Measurements as given in US8748468B2, “Manufacture, compositions and uses of coagulation factor VIIa modulator” (Pharmacyclics, Inc., priority 2007, dated 2014).
# Entries after “also recorded” stand apart in the source; their conditions may differ. Where two headings read alike, the source gives them in different places.
# Key:
# [1] = Pharmacokinetics after intravenous and subcutaneous administration in cynomolgus monkeys; format: in vivo; details: for AUC(0-t): read-out: AUC 0-48
# Method: A study was performed in cynomolgus monkeys with the compound of Formula I to provide information on its pharmacokinetics following intravenous and subcutaneous administration and to determine its subcutaneous bioavailability. The test compound was administered intravenously in a solution (1.76 mg/mL) composition and subcutaneously in a gel composition (107 mg/mL).
# [2] = system: FVIIa-induced IL-8 response in MDA-MB-231 human breast cancer cells; test: FVIIa-induced IL-8 response in MDA-MB-231 human breast cancer cells; format: cell-based; details: 1 μM added to the medium; MDA-MB-231 cells incubated with FVIIa
# Text: Secretion of the chemokine IL-8 increased to over 3-fold of baseline.
# [3] = Toxicology study, 28 or 29 days subcutaneous, cynomolgus monkeys; format: in vivo; details: for NOAEL: sc
# Method: Cynomolgus monkeys were administered a gel formulation of a compound of Formula I twice daily by subcutaneous injection for 28 or 29 consecutive days at a total daily dosage of 0 (vehicle), 3, 12, or 36 mg/kg/day (HED=0.96, 3.84, and 11.5 mg/kg/day, respectively).
# [4] = system: Lewis lung carcinoma tumor; test: Lewis lung carcinoma tumor growth in C57BL mice; format: in vivo; details: for tumor volume compared to the control: gel formulation SC, 6, 9, 13, and 15 days after start of dosing
# Method: In this example, the compound of Formula I was administered subcutaneously starting 4 days after tumor cell implantation in the mice (the two different dosing schedules are described in FIG. 2). […] As a result, the compound of Formula I inhibits the growth of tumor cells.
# In a follow-up tumor suppression study, the compound of Formula I reduced Lewis lung carcinoma tumor growth in C57BL mice by approximately 50% when given twice daily at subcutaneous doses 22.5, 45, and 90 mg/kg (FIG. 3).
# The compound of Formula I was administered in a gel formulation subcutaneously starting 4 days after tumor cell implantation. Tumor volume in the control experiment continued to increase from about 100 mm^3 at 6 days to above 400 mm^3 after 13 days and above 500 mm^3 after 15 days after start of dosing.
# [5] = system: Prothrombin (PT) time; test: Prothrombin time changes in C57BL/6 mice; format: in vivo; details: 2 hours following the 4th dose, 45 mg/kg/dose, gel SC twice daily
# Method: (§1) C57BL/6 mice were dosed with a compound of Formula I in a gel composition by subcutaneous injection twice daily for 2 days. Plasma concentrations of a compound of Formula I were measured by LC-MS/MS at select time points following doses 3 and 4. Following drug administration, plasma levels were elevated in a dose dependent manner reaching 15 ug/ml 3 hours after dose 3 at 45 mg/kg/dose. […] Maximal drug plasma levels reached greater than 30 ug/ml 2 hours following dose 4 at 45 mg/kg/dose and dropped to 13 ug/ml by 4 hours post dosing. […] Prothrombin (PT) times were measured at 0 (predose), 2, 4, and 18 hours after the 4th dose administration.
# [6] = Animal PK studies, subcutaneous bioavailability across species; format: in vivo; details: rat, dog, monkey, baboon, plasma, sc; administered subcutaneously in a solution; rats, dogs, monkeys, and baboons
# [7] = Animal PK studies, subcutaneous, rat; details: in vivo, sc, subcutaneous administration, read-out: terminal half-life (t1/2) (converted)
# [8] = Animal PK studies, subcutaneous, dog; format: in vivo; details: plasma, sc
# Method: In dogs, the time to reach maximum plasma concentrations (Tmax) following subcutaneous injection of a compound of Formula I was 0.5 hours.
# [9] = Plasma concentrations in C57BL/6 mice (LC-MS/MS); format: in vivo; details: for Drug plasma concentrations: all dose levels
# Method: as §1
# [10] = Animal PK studies, subcutaneous, monkey; details: in vivo, sc, subcutaneous administration, read-out: terminal half-life (t1/2)
# [11] = system: B16F10 melanoma cells; test: Lung colonization by B16F10 melanoma cells in mice; format: in vivo; details: 1.5 h before and 4.5 h and 24 h after tumor cell inoculation, compared to control vehicle
# Method: In this experiment, the compound of Formula I was administered subcutaneously 1.5 h before tumor cell inoculation, and then 4.5 h and 24 h after tumor cell inoculation. In the absence of the compound of Formula I (i.e., the vehicle alone), a substantial number of colonies formed in the majority of the inoculated mice. […] As a result, in some embodiments, the compound of Formula I inhibit the metastasis of tumor cells.
# The compound of Formula I (3×50 mg/kg; 3×100 mg/kg) and a control vehicle were administered subcutaneously 1.5 hours before tumor cell inoculation and then at 4.5 hours and 24 hours after tumor cell inoculation.
# [12] = Animal PK studies, subcutaneous, baboon; format: in vivo; details: plasma, sc
# [13] = cynomolgus monkey, plasma, sc, Subcutaneous Gel, 10.7 mg/kg, n = 3
# [14] = cynomolgus monkey, plasma, Intravenous Solution, 1.76 mg/kg, n = 4
# [15] = subcutaneous administration, read-out: terminal half-life (t1/2) (converted)
structure (smiles),measurement,setting,value
N=C(N)c1ccc2nc(-c3cc(CC(=O)N[C@@H](CC(=O)O)C(=O)O)cc(-c4cc(S(N)(=O)=O)ccc4O)c3O)[nH]c2c1 [compound of Formula I],subcutaneous Cmax as percent of the Cmax observed following intravenous dose,[1]; 10.7 mg/kg subcutaneous vs 1.76 mg/kg intravenous,74%
same,half-life,"[1]; cynomolgus monkey, plasma, iv, 1.76 mg/kg, Intravenous Solution, 1.76 mg/kg, n = 4, read-out: t1/2 α (converted)",0.162 h
same,half-life,"[1]; cynomolgus monkey, plasma, iv, 1.76 mg/kg, Intravenous Solution, 1.76 mg/kg, n = 4, read-out: t1/2 β (converted)",2.19 h
same,half-life,"[1]; cynomolgus monkey, plasma, iv, 1.76 mg/kg, Intravenous Solution, 1.76 mg/kg, n = 4, read-out: t1/2 γ (converted)",7.07 h
same,half-life,"[1]; cynomolgus monkey, plasma, sc, 10.7 mg/kg, Subcutaneous Gel, 10.7 mg/kg, n = 3, read-out: Terminal t1/2 (converted)",7.43 h
same,Cmax,"[1]; cynomolgus monkey, plasma, sc, Subcutaneous Gel (107 mg/mL), 10.7 mg/kg, n = 3",11600 ng/mL
same,AUC(0-inf),[1]; [13],172 µg·h/mL
same,CL/F,[1]; [13],1.07 mL/min/kg
same,Tmax,[1]; [13],3.33 h
same,AUC(0-t),[1]; [13],171 µg·h/mL
same,bioavailability,"[1]; cynomolgus monkey, plasma, sc, Subcutaneous Gel, single 10.7 mg/kg dose, n = 3, estimated, read-out: Bioavailabilty (subcutaneous)",138 ± 33%
same,Cmax,[1]; [14],15700 ng/mL
same,MRT,[1]; [14],5.15 h
same,clearance,[1]; [14],1.4 mL/min/kg
same,AUC(0-t),[1]; [14],21.2 µg·h/mL
same,Vd,"[1]; cynomolgus monkey, plasma, Intravenous Solution, 1.76 mg/kg, n = 4, read-out: Vss",0.43 L/kg
same,FVIIa-induced IL-8 response,[2],completely abrogated
same,sternum-bone marrow and spleen findings,"[3]; cynomolgus monkey, in vivo",shifts indicative of increased erythropoiesis
same,kidney medulla finding,"[3]; cynomolgus monkey, in vivo, 36 mg/kg/day",minimal to mild widening of the interstitium along the medullary rays
same,NOAEL,"[3]; cynomolgus monkey, in vivo",3 mg/kg/day
same,NOAEL,"[3]; cynomolgus monkey, in vivo, subcutaneous administration for 28 or 29 consecutive days, read-out: NOAEL as HED",0.96 mg/kg/day
same,unscheduled euthanasia,"[3]; one female, 36 mg/kg/day group, abnormally high aPTT prior to dosing",euthanized after 3 days of dosing due to severe external hemorrhage
same,reduction in tumor volume,"[4]; SC starting 4 days after tumor cell implantation, depending on the dosing schedule, p<0.01",≥ 50%
same,reduction of Lewis lung carcinoma tumor growth,"[4]; follow-up study, twice daily subcutaneous doses 22.5, 45, and 90 mg/kg",approximately 50%
same,tumor volume compared to the control,"[4]; 100 mg/kg bid x4d followed by 60 mg/kg bid, P<0.01",a reduction in the tumor volume
same,tumor volume compared to the control,"[4]; 150 mg/kg bid x4d followed by 90 mg/kg bid, P≦0.01",a reduction in the tumor volume
same,maximal change in PT time,[5],1.8 times baseline
same,bioavailability,[6],95 to 124%
same,half-life,[7],2.67 h
same,half-life,[8]; [15],5.68 h
same,Tmax,"[8]; subcutaneous injection, dogs, read-out: time to reach maximum plasma concentrations (Tmax)",0.5 h
same,Drug plasma concentrations,[9]; 6 hours after dose 3,had dropped significantly
same,Drug plasma concentrations,[9]; 18 hours following dose 4,at or near baseline
same,Drug plasma concentration,"[9]; gel SC twice daily, 2 hours following dose 4 at 22.5 mg/kg/dose",11000 ng/mL
same,Maximal drug plasma level,"[9]; gel SC twice daily, 2 hours following dose 4 at 45 mg/kg/dose",greater than 30 ug/ml
same,plasma level,"[9]; gel SC twice daily, 3 hours after dose 3 at 45 mg/kg/dose",15000 ng/mL
same,Drug plasma concentration,"[9]; gel SC twice daily, 4 hours following dose 4 at 22.5 mg/kg/dose",stayed elevated
same,drug plasma level,"[9]; gel SC twice daily, 4 hours post dose 4 at 45 mg/kg/dose",13000 ng/mL
same,half-life,[10],5.4 to 8.14 h
same,Bl6F10 colonies formed in the lung,"[11]; 3×50 mg/kg SC, 50 mg/kg",substantially fewer colonies were formed
same,Bl6F10 colonies formed in the lung,"[11]; 3×100 mg/kg SC, 100 mg/kg",substantially fewer colonies; also recorded: the number of colonies further dropped
same,half-life,[12]; [15],7.21 h
same,Tmax,"[12]; subcutaneous injection, baboons, read-out: time to reach maximum plasma concentrations (Tmax)",2.75 h
